Data from patent US11925629B2, “Heterocyclic inhibitors of ERK1 and ERK2 and their use in the treatment of cancer” (Asana Biosciences, LLC, priority 2015, dated 2024).

Columns and labels:
[1] = system: HCT116 (colorectal carcinoma, K Ras G13D) cells; test: Cell proliferation (Alamar Blue) assay, HCT116; assay type: cell-based, human
Experimental: (§1) Cell Proliferation (Alamar Blue) Assay
(§2) HT-29 (colorectal carcinoma, B-RafV600E), HCT116 (colorectal carcinoma, K Ras G13D), A375 (melanoma, B-RafV600E) and SK-Mel2 (melanoma, NRAS Q61R) cells (obtained from ATCC, USA) were seeded (5000 cells/well) in 96-well tissue culture plate and incubated at 37° C./5% CO2 for 16-24 hours. The cells were then treated with compounds, at concentrations typically from 0.0005 to 10 uM prepared in 3-fold serial dilutions. The plates were then incubated for 72 h at 37° C./5% CO2 in a moist environment. Then Alamar Blue™ reagent (final concentration 1×) was added to each well and incubated for 1-3 h at 37° C./5% CO2. The plates were read on fluorescence reader at 540 nm excitation and 590 nm emission wavelengths. The IC50 values were subsequently determined using a sigmoidal dose-response curve (variable slope) using GraphPad Prism® 5 software.

[2] = system: HT-29 (colorectal carcinoma, B-RafV600E) cells; test: Cell proliferation (Alamar Blue) assay, HT-29; assay type: cell-based, human
Experimental: as §1, §2

[3] = Homo sapiens, HCT-116, HCT116 cells
[4] = Homo sapiens, HT-29, HT29 cells

Cc1cnc(Nc2ccccc2Cl)nc1-n1cc(NC(=O)N[C@H](CO)c2cccc(Cl)c2)cn1 [Cmpd 2, (S)-1-(1-(3-chlorophenyl)-2-hydroxyethyl)-3-(1-(2-((2-chloro-phenyl)amino)-5-methylpyrimidin-4-yl)-1H-pyrazol-4-yl)urea]
IC50 [1, 3]: > 2.5 µM
IC50 [2, 4]: > 2.5 µM

Cc1cnc(NC2CC2)nc1-n1cc(C(=O)N[C@H](CO)c2cccc(Cl)c2)cn1 [Cmpd 39, (S)-N-(1-(3-chlorophenyl)-2-hydroxy-ethyl)-1-(2-(cyclopropyl-amino)-5-methyl-pyrimidin-4-yl)-1H-pyrazole-4-carboxamide]
IC50 [1, 3]: > 2.5 µM
IC50 [2, 4]: > 2.5 µM

Cc1cnc(Nc2ccc3c(c2)OCO3)nc1-n1cc(NC(=O)N[C@H](CO)c2ccccc2)cn1 [Cmpd 55, (S)-1-(1-(2-(benzo[d][1,3]dioxol-5-ylamino)-5-methyl-pyrimidin-4-yl)-1H-pyrazol-4-yl)-3-(2-hydroxy-1-phenylethyl) urea]
IC50 [1, 3]: > 2.5 µM
IC50 [2, 4]: > 2.5 µM

Cc1cnc(NC2CC2)nc1-n1cc(NC(=O)N[C@H](CO)c2cccc(Cl)c2)cn1 [Example 3, (S)-1-(1-(3-chlorophenyl)-2-hydroxyethyl)-3-(1-(2-(cyclo-propyl-amino)-5-methyl-pyrimidin-4-yl)-1H-pyrazol-4-yl)urea]
IC50 [1, 3]: > 2.5 µM
IC50 [2, 4]: > 2.5 µM

O=C(Nc1cnn(-c2ccnc(Nc3ccccc3Cl)n2)c1)N[C@@H](CO)c1ccccc1 [Example 4, (R)-1-(1-(2-((2-chlorophenyl)amino)pyrimidin-4-yl)-1H-pyrazol-4-yl)-3-(2-hydroxy-1-phenylethyl) urea]
IC50 [1, 3]: > 2.5 µM
IC50 [2, 4]: > 2.5 µM

O=C(Nc1cnn(-c2ccnc(NC3CC3)n2)c1)N[C@H](CO)c1cccc(Cl)c1 [Example 6, (S)-1-(1-(3-chlorophenyl)-2-hydroxyethyl)-3-(1-(2-(cyclo-propyl-amino)pyrimidin-4-yl)-1H-pyrazol-4-yl)urea]
IC50 [1, 3]: > 2.5 µM
IC50 [2, 4]: > 2.5 µM

O=C(Nc1cnn(-c2ccnc(Nc3ccccc3Cl)n2)c1)N[C@H](CO)c1ccccc1 [Example 7, (S)-1-(1-(2-((2-chlorophenyl)amino)pyrimidin-4-yl)-1H-pyrazol-4-yl)-3-(2-hydroxy-1-phenylethyl) urea]
IC50 [1, 3]: > 2.5 µM
IC50 [2, 4]: > 2.5 µM

CN1CCN(c2ccc(Nc3nccc(-n4cc(NC(=O)N[C@H](CO)c5cccc(Cl)c5)cn4)n3)cc2)CC1 [Example 22, (S)-1-(1-(3-chlorophenyl)-2-hydroxy-ethyl)-3-(1-(2-((4-(4-methyl-piperazin-1-yl)-phenyl)amino)pyrimidin-4-yl)-1H-pyrazol-4-yl)urea]
IC50 [1, 3]: > 2.5 µM
IC50 [2, 4]: > 2.5 µM

O=C(Nc1cnn(-c2ccnc(Nc3cccnc3)n2)c1)N[C@H](CO)c1cccc(Cl)c1 [Example 24, (S)-1-(1-(3-chlorophenyl)-2-hydroxy-ethyl)-3-(1-(2-(pyridin-3-yl-amino)pyrimidin-4-yl)-1H-pyrazol-4-yl)urea]
IC50 [1, 3]: > 2.5 µM
IC50 [2, 4]: > 2.5 µM

O=C(Nc1cnn(-c2nc(NC3CC3)ncc2F)c1)N[C@H](CO)c1cccc(Cl)c1 [Example 30, (S)-1-(1-(3-chlorophenyl)-2-hydroxy-ethyl)-3-(1-(2-(cyclo-propyl-amino)-5-fluoro-pyrimidin-4-yl)-1H-pyrazol-4-yl)urea]
IC50 [1, 3]: > 2.5 µM
IC50 [2, 4]: > 2.5 µM

Cc1cnc(Nc2ccc3c(c2)OCO3)nc1-n1cc(NC(=O)NC(CO)c2cccc(Cl)c2)cn1 (centres unmarked) [Example 37, 1-(1-(2-(benzo[d][1,3]dioxol-5-ylamino)-5-methyl-pyrimidin-4-yl)-1H-pyrazol-4-yl)-3-(1-(3-chlorophenyl)-2-hydroxy-ethyl)urea]
IC50 [1, 3]: 0.5 to 2.5 µM
IC50 [2, 4]: > 2.5 µM

Cc1cnc(NC2CC2)nc1-n1cc(C(=O)NC(CO)c2cccc(Cl)c2)cn1 (centres unmarked) [Example 40, N-(1-(3-chlorophenyl)-2-hydroxy-ethyl)-1-(2-(cyclopropyl-amino)-5-methyl-pyrimidin-4-yl)-1H-pyrazole-4-carboxamide]
IC50 [1, 3]: > 2.5 µM
IC50 [2, 4]: > 2.5 µM

Cc1cnc(Nc2ccc3c(c2)OCO3)nc1-n1cc(C(=O)NC(CO)c2cccc(Cl)c2)cn1 (centres unmarked) [Example 41, 1-(2-(benzo[d][1,3]dioxol-5-ylamino)-5-methyl-pyrimidin-4-yl)-N-(1-(3-chloro-phenyl)-2-hydroxy-ethyl)-1H-pyrazole-4-carboxamide]
IC50 [1, 3]: > 2.5 µM
IC50 [2, 4]: > 2.5 µM

Cc1cnc(Nc2ccc3c(c2)OCO3)nc1-n1cc(NC(=O)N[C@H](CO)c2cccc(Cl)c2)cn1 [Example 44, (S)-1-(1-(2-(benzo[d][1,3]dioxol-5-ylamino)-5-methyl-pyrimidin-4-yl)-1H-pyrazol-4-yl)-3-(1-(3-chloro-phenyl)-2-hydroxy-ethyl)urea]
IC50 [1, 3]: > 2.5 µM
IC50 [2, 4]: > 2.5 µM

Cc1cnc(Nc2ccc(F)cc2Cl)nc1-n1cc(C(=O)NC(CO)c2cccc(Cl)c2)cn1 (centres unmarked) [Example 45, 1-(2-((2-chloro-4-fluorophenyl)amino)-5-methyl-pyrimidin-4-yl)-N-(1-(3-chlorophenyl)-2-hydroxy-ethyl)-1H-pyrazole-4-carboxamide]
IC50 [1, 3]: > 2.5 µM
IC50 [2, 4]: > 2.5 µM

O=C(NC(CO)c1cccc(Cl)c1)c1ccn(-c2ccnc(Nc3ccccc3)c2)c1 (centres unmarked) [Example 46, N-(1-(3-chloro-phenyl)-2-hydroxy-ethyl)-1-(2-(phenyl-amino)pyridin-4-yl)-1H-pyrrole-3-carboxamide]
IC50 [1, 3]: > 2.5 µM
IC50 [2, 4]: > 2.5 µM

O=C(Nc1cnn(-c2ccnc(Nc3ccccc3)c2)c1)N[C@@H](CO)c1cccc(Cl)c1 [Example 49, (R)-1-(1-(3-chloro-phenyl)-2-hydroxy-ethyl)-3-(1-(2-(phenylamino)pyridin-4-yl)-1H-pyrazol-4-yl)urea]
IC50 [1, 3]: > 2.5 µM
IC50 [2, 4]: > 2.5 µM

Cc1cnc(Nc2ccc3c(c2)OCO3)nc1-n1cc(C(=O)N[C@H](CO)c2cccc(Cl)c2)cn1 [Example 50, (S)-1-(2-(benzo[d][1,3]dioxol-5-ylamino)-5-methyl-pyrimidin-4-yl)-N-(1-(3-chloro-phenyl)-2-hydroxy-ethyl)-1H-pyrazole-4-carboxamide]
IC50 [1, 3]: > 2.5 µM
IC50 [2, 4]: > 2.5 µM

Cc1cnc(Nc2ccc3c(c2)OCO3)nc1-n1cc(NC(=O)N[C@@H](CO)c2cccc(Cl)c2)cn1 [Example 51, (R)-1-(1-(2-(benzo[d][1,3]dioxol-5-ylamino)-5-methyl-pyrimidin-4-yl)-1H-pyrazol-4-yl)-3-(1-(3-chloro-phenyl)-2-hydroxy-ethyl)urea]
IC50 [1, 3]: > 2.5 µM
IC50 [2, 4]: > 2.5 µM

Cc1cnc(Nc2ccc(F)cc2Cl)nc1-n1cc(C(=O)NC(CN)c2ccccc2)cn1 (centres unmarked) [Example 54, N-(2-amino-1-phenylethyl)-1-(2-((2-chloro-4-fluoro-phenyl)amino)-5-methyl-pyrimidin-4-yl)-1H-pyrazole-4-carboxamide]
IC50 [1, 3]: > 2.5 µM
IC50 [2, 4]: > 2.5 µM

Cc1cnc(Nc2ccc(F)cc2Cl)nc1-n1ccc(C(=O)N[C@H](CO)c2cccc(Cl)c2)c1 [Example 57, (S)-1-(2-((2-chloro-4-fluorophenyl)-amino)-5-methyl-pyrimidin-4-yl)-N-(1-(3-chlorophenyl)-2-hydroxy-ethyl)-1H-pyrrole-3-carboxamide]
IC50 ([1]; HCT116 cells): > 2.5 µM
IC50 ([2]; HT29 cells): > 2.5 µM

Cc1cnc(Nc2ccc(F)cc2Cl)cc1-n1ccc(C(=O)NC(CO)c2ccccc2)c1 (centres unmarked) [Example 78, 1-(2-((2-chloro-4-fluorophenyl)amino)-5-methyl-pyridin-4-yl)-N-(2-hydroxy-1-phenylethyl)-1H-pyrrole-3-carboxamide]
IC50 [1, 3]: > 2.5 µM
IC50 [2, 4]: > 2.5 µM

Cc1cnc(Nc2ccc3occc3c2)cc1-n1ccc(C(=O)NC(CO)c2ccccc2)c1 (centres unmarked) [Example 79, 1-(2-(benzo-furan-5-ylamino)-5-methyl-pyridin-4-yl)-N-(2-hydroxy-1-phenylethyl)-1H-pyrrole-3-carboxamide]
IC50 [1, 3]: > 2.5 µM
IC50 [2, 4]: > 2.5 µM

Cc1cnc(Nc2cccnc2)cc1-n1ccc(C(=O)NC(CO)c2ccccc2)c1 (centres unmarked) [Example 81, N-(2-hydroxy-1-phenylethyl)-1-(5-methyl-2-(pyridin-3-ylamino)pyridin-4-yl)-1H-pyrrole-3-carboxamide]
IC50 [1, 3]: > 2.5 µM
IC50 [2, 4]: > 2.5 µM

O=C(NC(CO)c1ccccc1)c1ccn(-c2ccnc(Nc3ccc(F)cc3Cl)c2)c1 (centres unmarked) [Example 82, 1-(2-((2-chloro-4-fluorophenyl)amino)pyridin-4-yl)-N-(2-hydroxy-1-phenylethyl)-1H-pyrrole-3-carboxamide]
IC50 [1, 3]: > 2.5 µM
IC50 [2, 4]: > 2.5 µM

Cc1cnc(Nc2ccc(N3CCNCC3)cc2)cc1-n1ccc(C(=O)NC(CO)c2ccccc2)c1 (centres unmarked) [Example 83, N-(2-hydroxy-1-phenylethyl)-1-(5-methyl-2-((4-(piperazin-1-yl)-phenyl)amino)-pyridin-4-yl)-1H-pyrrole-3-carboxamide]
IC50 [1, 3]: > 2.5 µM
IC50 [2, 4]: > 2.5 µM

O=C(NC(CO)c1ccccc1)c1ccn(-c2ccnc(Nc3ccc(F)cc3)c2)c1 (centres unmarked) [Example 84, 1-(2-((4-fluoro-phenyl)amino)pyridin-4-yl)-N-(2-hydroxy-1-phenyl-ethyl)-1H-pyrrole-3-carboxamide]
IC50 [1, 3]: > 2.5 µM
IC50 [2, 4]: > 2.5 µM

Cc1cnc(Nc2ccc(F)cc2Cl)cc1-n1cnc(C(=O)NC(CO)c2ccccc2)c1 (centres unmarked) [Example 85, 1-(2-((2-chloro-4-fluorophenyl)amino)-5-methyl-pyridin-4-yl)-N-(2-hydroxy-1-phenylethyl)-1H-imidazole-4-carboxamide]
IC50 [1, 3]: > 2.5 µM
IC50 [2, 4]: > 2.5 µM
